Reference: patent US20150031655A1, “COMBINATION OF LIVER X RECEPTOR MODULATOR AND ESTROGEN RECEPTOR MODULATOR FOR THE TREATMENT OF AGE-RELATED DISEASES” (UNIVERSITY OF NORTH DAKOTA, priority 2011, published 2015)

Experiments:
LXRβ = biological target: T1, LXRβ (Homo sapiens, UniProt P55055); assay: ChIP, LXRβ binding to the LXRE in the α-synuclein promoter; format: cell-based; parameters: endogenous in cells; host or cells: SH-SY5Y human neuroblastoma cells; conditions: SH-SY5Y
T1 sequence (P55055 1-460): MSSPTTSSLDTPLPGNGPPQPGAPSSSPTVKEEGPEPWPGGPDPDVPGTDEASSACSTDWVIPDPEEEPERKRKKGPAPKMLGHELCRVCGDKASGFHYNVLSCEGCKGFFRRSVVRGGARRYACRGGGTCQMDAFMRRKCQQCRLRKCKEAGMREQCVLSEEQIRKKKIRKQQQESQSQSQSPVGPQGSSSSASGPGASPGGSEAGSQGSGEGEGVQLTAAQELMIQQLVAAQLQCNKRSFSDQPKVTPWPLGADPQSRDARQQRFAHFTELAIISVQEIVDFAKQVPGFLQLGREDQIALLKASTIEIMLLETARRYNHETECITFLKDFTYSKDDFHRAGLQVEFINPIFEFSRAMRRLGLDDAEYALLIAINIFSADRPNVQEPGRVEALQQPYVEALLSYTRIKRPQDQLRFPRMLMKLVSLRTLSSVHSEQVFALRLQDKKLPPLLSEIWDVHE
Method: (§1) Human neuroblastoma SH-SY5Y cells were grown in DMEM/F12 medium containing 10% fetal bovine serum (FBS) and 1% antibiotic/antimycotic mix. Cells were maintained at 37° C. in a saturated humidity atmosphere containing 95% air and 5% CO2.
ChIP analysis was performed to evaluate the extent of ERα/ERβ and LXRα/LXRβ binding to the DNA elements in the TH promoter and α-synuclein promoter regions respectively using “SimpleChIP™ Enzymatic Chromatic IP kit” from Cell Signaling (Boston, Mass.).
Briefly, cells from each treatment group (3×10^6 cells) were washed with PBS, trypsinized, centrifuged at 5000 g. The pellet containing the cells was further washed with PBS and cross-linked using 37% formaldehyde for 15 min followed by the addition of glycine solution to cease the cross-linking reaction.
The cells were washed with 4× volumes of 1×PBS and centrifuged at ˜220 g for 5 min. The pellet was resuspended and incubated for 10 min in 5 ml of tissue lysis buffer containing DTT and protease and phosphatase inhibitors. The subsequent steps to isolate the cross-linked chromatin were performed according to the manufacturer's protocol.
The cross-linked chromatin from each sample was apportioned into four equal parts. One quarter of the cross-linked chromatin was set aside as “input.” One quarter of the cross-linked chromatin from each sample was incubated with 5 μg of anti-ERα mouse antibody (Cell Signaling, Boston, Mass.) and 5 μg of anti-ERβ rabbit antibody (Upstate, Bedford, Mass.), or 5 μg of anti-LXRα rabbit antibody (Abcam, Cambridge, Mass.) and 5 μg of anti-LXRβ mouse antibody (Abcam, Cambridge, Mass.), while the remaining one quarter of the cross-linked chromatin from each sample was incubated with 5 μg of normal Rabbit IgG to serve as negative control.
The cross-linked chromatin samples were incubated overnight at 4° C. with their respective antibodies. The DNA-protein complexes were collected with Protein G agarose beads and washed to remove non-specific antibody binding. The DNA from the DNA-protein complexes from all the samples including the input and negative control was reverse cross-linked by incubation with 2 μL of Proteinase K for 2 hours at 65° C.
The crude DNA extract was eluted and then washed several times with wash buffer containing ethanol (provided with the kit) followed by purification with the use of DNA spin columns provided by the manufacturer. The pure DNA was eluted out of the DNA spin columns using 50 μL of the DNA elution buffer provided in the kit. 1 μL of the purified DNA was used for DNA concentration analysis using the “Quant-iT™ dsDNA Assay kit” from Invitrogen (Carlsbad, Calif.). The DNA fragment size was determined by electrophoresis on a 1.2% agarose FlashGel^R system (Lonza, Rockland, Me.).
The relative abundance of the ERα or ERβ antibody precipitated chromatin containing the ERE in the TH promoter region and LXRα or LXRβ antibody precipitated chromatin containing the LXRE in the α-synuclein promoter region was determined by qPCR using an iQ SYBR Green Supermix kit following the manufacturer's instructions (BioRad, Hercules, Calif.) and sequence specific primers (See Table 1 above). […] The fold enrichment of the ERE in the TH promoter region and LXRE in the α-synuclein promoter region was calculated using the ΔΔCt method (K. J. Livak et al., Methods, 25, 402 (2001)) which normalizes ChIP Ct values of each sample to the % input and background.

α-synuclein mRNA = assay: Real time RT-PCR of α-synuclein mRNA in SH-SY5Y cells; format: cell-based, human; conditions: for increase in α-synuclein mRNA expression: 24 h; for 27-OHC-induced increase in α-synuclein mRNA: co-treatment with 10 μM 27-OHC
Method: as §1
Total RNA was isolated and extracted from treated cells using the 5 prime “PerfectPure RNA tissue kit” (5 Prime, Inc., Gaithersburg, Md.). RNA estimation was performed using “Quant-iT RNA Assay Kit” using a Qubit fluorometer according to the manufacturer's protocol (Invitrogen, Carlsbad, Calif.). cDNA was synthesized by reverse transcribing 1 μg of extracted RNA using an “iScript cDNA synthesis kit” (BioRad, Hercules, Calif.). The oligomeric primers (Sigma, St Louis, Mo.) used to amplify the TH mRNA and α-synuclein mRNA are enumerated in Table 1. The cDNA amplification was performed using an iQ SYBR Green Supermix kit following the manufacturer's instructions (BioRad, Hercules, Calif.). The amplification was performed using an iCycler iQ Multicolor Real Time PCR Detection System (BioRad, Hercules, Calif.). The expression of specific TH and α-synuclein transcripts amplified were normalized to the expression of glyceraldehyde-3-phosphate dehydrogenase (GAPDH).

Row | 27-OHC-induced increase in LXRβ binding to the LXRE (LXRβ; co-treatment with 27-OHC) | decrease in LXRβ binding to the LXRE on the α-synuclein promoter (LXRβ; treatment alone vs control) | increase of LXRβ binding to the LXRE on the α-synuclein promoter (LXRβ; in combination with 27-OHC) | Compound | increase of LXRβ binding to the LXRE in the α-synuclein promoter (LXRβ; treatment alone vs control) | increase in α-synuclein mRNA expression (α-synuclein mRNA; treatment alone vs control) | 27-OHC-induced increase in α-synuclein mRNA (α-synuclein mRNA) | α-synuclein mRNA levels (α-synuclein mRNA; treatment alone vs control)
1 | – | – | – | C[C@@H](CO)CCC[C@@H](C)[C@H]1CC[C@H]2[C@@H]3CC=C4C[C@@H](O)CC[C@]4(C)[C@H]3CC[C@]12C [27-OHC, 27-hydroxycholesterol] | ~3 fold | 9 fold | – | –
2 | significantly reversed | ~2.8 fold | – | CC(C)CCC[C@@H](C)[C@H]1CC[C@H]2[C@@H]3C[C@@H]4O[C@@]45C[C@@H](OS(=O)(=O)O)CC[C@]5(C)[C@H]3CC[C@]12C [ECHS, 5α,6α-epoxycholesterol-3-sulfate] | – | – | marked attenuation | no effect
3 | – | – | 4 fold | Cl.O=C(O)Cc1cccc(OCCCN(Cc2cccc(C(F)(F)F)c2Cl)CC(c2ccccc2)c2ccccc2)c1 [GW3965, 3-[3-[N-(2-Chloro-3-trifluoromethylbenzyl)-(2,2-diphenylethyl)amino]propyloxy]phenylacetic acid hydrochloride] | 3.5 fold | 10 fold | not mRNA levels | –
